Source: PMC11915801, “Evolutionary trajectory of bacterial resistance to antibiotics and antimicrobial peptides in Escherichia coli” (mSystems, 2025)
Converted amounts (≈) assume the structure as drawn. Read-outs that look alike come from different tables or passages of the source.

Tests used:
[1] = system: antibiotic- and AMP-evolved strains of MG1655; settings: 1.5% H2O2, 37°C, 1 h in the dark, CFU counting
Description: Bacterial cells were proportionally mixed with 3% hydrogen peroxide solution and incubated at 37°C for 1 h in the dark. The reaction was terminated by adding a catalase solution with a final concentration of 1,000 U/mL. After diluting the mixture to an appropriate gradient, the drops were carried out on LB agar plates, and then the agar plates were placed in a 37°C incubator overnight for colony counting.

E. coli K-12 MG1655 = assay: microbe, parasite or virus in culture; assay type: cell-based, Escherichia coli; settings: for MIC: Escherichia coli
Description: (§1) The broth microdilution method was used to measure the MIC values of antibiotics and peptides according to the Clinical and Laboratory Standards Institute guidelines. The MIC value is defined as the lowest drug concentration without visible bacteria.
Eight antibiotics and ten AMPs at the sub-inhibitory concentration were prepared. A 300-µL system, including 260 µL of MH broth, 30 µL of prepared drug, and 10 µL of bacterial culture, was used for resistance passages. After 12 h of incubation at 37℃ and 200 rpm, 10 µL of the above bacterial culture was added into the new sterile drug-containing broth. MIC values of bacterial culture were determined. The drug concentration was adjusted according to the MIC value change until the end of the 120 passages.

AMP120 (evolved MG1655) = assay: microbe, parasite or virus in culture; assay type: cell-based, Escherichia coli; settings: broth microdilution, ampicillin-evolved strain
Text: (§2) To ensure the stable resistance evolution and inheritance of MG1655 under different drugs, we randomly selected three monoclonals from the evolved strains. The final antibiotic-evolved strains were designated as AMP120, AZI120, CHL80, CIP120, DOX120, KAN80, NIT70, and TMP30, while the final AMP-evolved strains were named COL120, Ind120, Omi120, Pex120, PGLA120, Pleu120, R8120, SAAP120, LI120, and SLAP120.
as §1

AZI120 (evolved MG1655) = assay: microbe, parasite or virus in culture; assay type: cell-based, Escherichia coli; settings: broth microdilution, azithromycin-evolved strain
Text: as §2, §1

CHL80 (evolved MG1655) = assay: microbe, parasite or virus in culture; assay type: cell-based, Escherichia coli; settings: broth microdilution, chloramphenicol-evolved strain
Text: as §2, §1

CIP120 (evolved MG1655) = assay: microbe, parasite or virus in culture; assay type: cell-based, Escherichia coli; settings: broth microdilution, ciprofloxacin-evolved strain
Text: as §2, §1

COL120 (evolved MG1655) = assay: microbe, parasite or virus in culture; assay type: cell-based, Escherichia coli; settings: broth microdilution, colistin-evolved strain
Text: as §2, §1

DOX120 (evolved MG1655) = assay: microbe, parasite or virus in culture; assay type: cell-based, Escherichia coli; settings: broth microdilution, doxycycline-evolved strain
Text: as §2, §1

KAN80 (evolved MG1655) = assay: microbe, parasite or virus in culture; assay type: cell-based, Escherichia coli; settings: broth microdilution, kanamycin-evolved strain
Text: as §2, §1

NIT70 (evolved MG1655) = assay: microbe, parasite or virus in culture; assay type: cell-based, Escherichia coli; settings: broth microdilution, nitrofurantoin-evolved strain
Text: as §2, §1

TMP30 (evolved MG1655) = assay: microbe, parasite or virus in culture; assay type: cell-based, Escherichia coli; settings: broth microdilution, trimethoprim-evolved strain
Text: as §2, §1

In the case of OO [H2O2, hydrogen peroxide], the “survival rate of all strains after H2O2 treatment” value [1] was “lower than 1%”.
“Fatty acyl-Dab-Thr-Dab-Dab-Dab-D-Leu-Leu-Dab-Dab-Thr [COL, Colistin, cationic lipopeptide antibiotic (polymyxin), source microorganism]” was tested, and the “evolution of resistance in MG1655 (in words)” value (E. coli K-12 MG1655; MG1655, sub-inhibitory drug in MH broth over 60 days) was “marginal increase in resistance”, the “MIC of MG1655 under the pressure of the same drug, generation 20” value (E. coli K-12 MG1655; as E2, generation 20) was 0.125 µg/mL and the “MIC of MG1655 under the pressure of the same drug, generation 30” value (E. coli K-12 MG1655; as E2, generation 30) was 0.25 µg/mL. The “MIC of MG1655 under the pressure of the same drug, generation 40” value (E. coli K-12 MG1655; as E2, generation 40) was 0.25 µg/mL, the “MIC of MG1655 under the pressure of the same drug, generation 50” value (E. coli K-12 MG1655; as E2, generation 50) was 0.5 µg/mL and the “MIC of MG1655 under the pressure of the same drug, generation 60” value (E. coli K-12 MG1655; as E2, generation 60) was 0.5 µg/mL. The “MIC of MG1655 under the pressure of the same drug, generation 70” value (E. coli K-12 MG1655; as E2, generation 70) was 0.5 µg/mL, the “MIC of MG1655 under the pressure of the same drug, generation 80” value (E. coli K-12 MG1655; as E2, generation 80) was 0.5 µg/mL and the “MIC of MG1655 under the pressure of the same drug, generation 90” value (E. coli K-12 MG1655; as E2, generation 90) was 0.5 µg/mL. For the same compound, the “MIC of MG1655 under the pressure of the same drug, generation 100” value (E. coli K-12 MG1655; as E2, generation 100) was 0.5 µg/mL, the “MIC of MG1655 under the pressure of the same drug, generation 110” value (E. coli K-12 MG1655; as E2, generation 110) was 0.5 µg/mL and the “MIC of MG1655 under the pressure of the same drug, generation 120” value (E. coli K-12 MG1655; as E2, generation 120) was 0.5 µg/mL. The “MIC of MG1655 under the pressure of the same drug, generation primary” value (E. coli K-12 MG1655; broth microdilution (CLSI), primary MG1655 before passage) was 0.125 µg/mL, the “MIC of MG1655 under the pressure of the same drug, generation 10” value (E. coli K-12 MG1655; broth microdilution, line passaged in MH broth with sub-inhibitory drug, 12 h per passage, 37℃, generation 10) was 0.125 µg/mL and the “MIC values of evolved MG1655, strain AMP120” value (AMP120 (evolved MG1655)) was 0.5 µg/mL. For the same compound, the “MIC values of evolved MG1655, strain AZI120” value (AZI120 (evolved MG1655)) was 0.5 µg/mL, the “MIC values of evolved MG1655, strain CHL80” value (CHL80 (evolved MG1655)) was 0.25 µg/mL and the “MIC values of evolved MG1655, strain CIP120” value (CIP120 (evolved MG1655)) was 0.5 µg/mL. The “MIC values of evolved MG1655, strain COL120” value (COL120 (evolved MG1655)) was 0.5 µg/mL, the “MIC values of evolved MG1655, strain DOX120” value (DOX120 (evolved MG1655)) was 0.25 µg/mL and the “MIC values of evolved MG1655, strain KAN80” value (KAN80 (evolved MG1655)) was 0.5 µg/mL. The “MIC values of evolved MG1655, strain NIT70” value (NIT70 (evolved MG1655)) was 0.5 µg/mL and the “MIC values of evolved MG1655, strain TMP30” value (TMP30 (evolved MG1655)) was 0.5 µg/mL.
Work on C[C@H]1c2cccc(O)c2C(=O)C2=C(O)[C@]3(O)C(=O)C(C(N)=O)=C(O)[C@@H](N(C)C)[C@@H]3[C@@H](O)[C@@H]21 [DOX, Doxycycline] yielded an MIC (E. coli K-12 MG1655; MG1655, 12 h, read-out: MIC of MG1655 under the pressure of the same drug, generation 10) of 16 µg/mL, an MIC (E. coli K-12 MG1655; MG1655, read-out: MIC of MG1655 under the pressure of the same drug, generation primary) of 2 µg/mL and an MIC (E. coli K-12 MG1655; MG1655, as E2, generation 20, read-out: MIC of MG1655 under the pressure of the same drug, generation 20) of 32 µg/mL. The MIC (E. coli K-12 MG1655; MG1655, as E2, generation 30, read-out: MIC of MG1655 under the pressure of the same drug, generation 30) was 32 µg/mL, the MIC (E. coli K-12 MG1655; MG1655, as E2, generation 40, read-out: MIC of MG1655 under the pressure of the same drug, generation 40) was 32 µg/mL and the MIC (E. coli K-12 MG1655; MG1655, as E2, generation 50, read-out: MIC of MG1655 under the pressure of the same drug, generation 50) was 32 µg/mL. It also gave an MIC (E. coli K-12 MG1655; MG1655, as E2, generation 60, read-out: MIC of MG1655 under the pressure of the same drug, generation 60) of 32 µg/mL, an MIC (E. coli K-12 MG1655; MG1655, as E2, generation 70, read-out: MIC of MG1655 under the pressure of the same drug, generation 70) of 32 µg/mL and an MIC (E. coli K-12 MG1655; MG1655, as E2, generation 80, read-out: MIC of MG1655 under the pressure of the same drug, generation 80) of 32 µg/mL. For the same compound, the MIC (E. coli K-12 MG1655; MG1655, as E2, generation 90, read-out: MIC of MG1655 under the pressure of the same drug, generation 90) was 32 µg/mL, the MIC (E. coli K-12 MG1655; MG1655, as E2, generation 100, read-out: MIC of MG1655 under the pressure of the same drug, generation 100) was 32 µg/mL and the MIC (E. coli K-12 MG1655; MG1655, as E2, generation 110, read-out: MIC of MG1655 under the pressure of the same drug, generation 110) was 32 µg/mL. It also gave an MIC (E. coli K-12 MG1655; MG1655, as E2, generation 120, read-out: MIC of MG1655 under the pressure of the same drug, generation 120) of 32 µg/mL, an MIC (AMP120 (evolved MG1655); Escherichia coli, MG1655) of 2 µg/mL (≈ 4.5 µM) and an MIC (AZI120 (evolved MG1655); Escherichia coli, MG1655) of 8 µg/mL (≈ 18 µM). For the same compound, the MIC (CHL80 (evolved MG1655); Escherichia coli, MG1655) was 16 µg/mL (≈ 36 µM), the MIC (CIP120 (evolved MG1655); Escherichia coli) was 16 µg/mL (≈ 36 µM) and the MIC (COL120 (evolved MG1655); Escherichia coli, MG1655) was 4 µg/mL (≈ 9 µM). The MIC (DOX120 (evolved MG1655); Escherichia coli, MG1655) was 32 µg/mL (≈ 72 µM), the MIC (KAN80 (evolved MG1655); Escherichia coli, MG1655) was 1 µg/mL (≈ 2.25 µM) and the MIC (NIT70 (evolved MG1655); Escherichia coli, MG1655) was 8 µg/mL (≈ 18 µM). It also gave an MIC (TMP30 (evolved MG1655); Escherichia coli, MG1655) of 4 µg/mL (≈ 9 µM).
